# Measurements taken from patent US11667602B2, “Compounds and their use” (AstraZeneca AB, priority 2020, dated 2023).
# How the values were obtained:
# [1] = Human Plasma Protein Binding (Test B); format: in vitro ADME; settings: fraction unbound (fu)
# Summary of the method: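 Values given as % free (fu) in human plasma, using the method of Wernevik et al. (2020). For compounds tested more than once, the arithmetic mean is given.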
# Solubility (Test F) = format: physicochemical; settings: arithmetic mean if run multiple times
# Procedure: The assay was conducted according to the Solubility Assay described in pages 164-167 of Wernevik, J. et al., “A Fully Integrated Assay Panel for Early Drug Metabolism and Pharmacokinetics Profiling”, Assay and Drug Development Technologies, 2020, 18(4), 157-179. Data are reported in Table 36 as solubility ([…]. Where the assay was run multiple times for the same compound, the arithmetic mean is reported.
# [2] = Human Liver Microsomal Stability (Test C); format: in vitro ADME; settings: human, liver microsomes
# Summary of the method: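 CLint (μl/min/mg protein) derived from compound depletion in human liver microsomes following a published standardized early-DMPK protocol; replicate determinations given as arithmetic mean.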
# [3] = Rat Hepatocyte Stability (Test E); format: in vitro ADME; settings: rat, hepatocytes, geometric mean if run multiple times
# Summary of the method: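 Intrinsic clearance in rat hepatocytes, expressed as μl/min/10^6 cells, following the literature integrated DMPK panel method. Repeat determinations combined as geometric mean.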
# human RXFP1 = target: T1, human RXFP1 (Homo sapiens, UniProt Q9HBX9); assay: RXFP1 Hu cAMP (Test A); format: cell-based; parameters: expressed in transfected cells; host or cells: Jump-In T-REx CHO-K1 cells (ThermoFisher), induced with 10 ng/ml doxycycline for 24 h; settings: RXFP1 Hu cAMP; for EC50: read-out: Test A EC50
# T1 sequence (Q9HBX9 1-757): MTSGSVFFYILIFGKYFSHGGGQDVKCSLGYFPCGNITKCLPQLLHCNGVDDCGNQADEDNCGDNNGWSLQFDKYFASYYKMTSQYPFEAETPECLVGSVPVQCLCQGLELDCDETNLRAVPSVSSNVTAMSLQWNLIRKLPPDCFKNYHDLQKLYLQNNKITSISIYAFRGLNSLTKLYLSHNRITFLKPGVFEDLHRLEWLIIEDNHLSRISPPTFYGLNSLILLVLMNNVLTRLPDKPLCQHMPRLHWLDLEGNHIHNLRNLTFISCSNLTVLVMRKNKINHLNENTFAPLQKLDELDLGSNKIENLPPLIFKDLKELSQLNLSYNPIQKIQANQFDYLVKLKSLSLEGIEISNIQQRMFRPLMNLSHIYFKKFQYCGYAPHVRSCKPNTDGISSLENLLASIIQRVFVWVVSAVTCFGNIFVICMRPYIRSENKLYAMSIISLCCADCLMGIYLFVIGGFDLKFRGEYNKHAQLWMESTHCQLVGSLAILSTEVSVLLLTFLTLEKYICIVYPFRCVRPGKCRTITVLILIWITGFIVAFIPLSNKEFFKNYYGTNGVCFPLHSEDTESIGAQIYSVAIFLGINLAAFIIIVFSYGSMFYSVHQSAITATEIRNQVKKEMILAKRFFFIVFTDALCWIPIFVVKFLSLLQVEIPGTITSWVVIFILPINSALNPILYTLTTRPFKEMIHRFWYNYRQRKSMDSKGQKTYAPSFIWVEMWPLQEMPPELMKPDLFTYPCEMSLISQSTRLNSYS
# Summary of the method: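 Cells: CHO-K1 stably carrying human RXFP1, expressed after 24 h 10 ng/ml doxycycline; 0.5 mM IBMX final, HTRF detection after 2 h at room temperature.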
SMILES,Test B Human Plasma Protein Binding (% free) [1] [% free],solubility (Solubility (Test F)) [µM],microsomal CLint [2] [µL/min/mg],hepatocyte CLint [3] [µL/min/1e6 cells],EC50 (human RXFP1) [nM],Test A Sinf (human RXFP1) [%]
COc1cc(C#N)c(O[C@H]2CC[C@@](C)(C(=O)O)CC2)cc1C(=O)N[C@@H]1[C@H]2CC[C@H](C2)[C@@H]1C(=O)N[C@]12CC3CC(C[C@@](O)(C3)C1)C2 [Example 113],28,950,11,30,> 9400,–
COc1cc(C#N)c(O[C@H]2CC[C@@](C)(C(=O)O)CC2)cc1C(=O)N[C@@H]1[C@H]2CC[C@H](C2)[C@@H]1C(=O)NCc1nccc(C(F)F)n1 [Example 114],17,810,17,94,> 9400,–
"COc1cc(C#N)c(O[C@H]2C[C@@](C)(C(=O)O)C2)cc1C(=O)N[C@@H]1[C@H]2CC[C@H](C2)[C@@H]1C(=O)NCC1(C)CCC1 [Example 148, (1S,3s)-3-(2-cyano-4-methoxy-5-(((1S,2R,3S,4R)-3-(((1-methylcyclobutyl)methyl)carbamoyl)bicyclo[2.2.1]heptan-2-yl)carbamoyl)phenoxy)-1-methylcyclobutane-1-carboxylic acid]",0.59,890,7.4,18,> 5000,–
"COc1cc(F)c(O[C@H]2CC[C@@](C)(C(=O)O)CC2)cc1C(=O)Nc1c(C)cccc1C(=O)NCC1(C)CCC1 [Example 156, (1s,4s)-4-(2-Fluoro-4-methoxy-5-((2-methyl-6-(((1-methylcyclobutyl)methyl)carbamoyl)phenyl)carbamoyl)phenoxy)-1-methylcyclohexane-1-carboxylic acid]",3.2,770,4.3,22,–,97
"COc1cc(F)c(O[C@H]2CC[C@@H](C(=O)O)CC2)cc1C(=O)NC1C(C(=O)NCCCC(F)(F)F)[C@@H]2CC[C@H]1C2 (stereo partly drawn) [Example 175, (1S,4s)-4-(2-Fluoro-4-methoxy-5-(((1S,2R,3S,4R)-3-((4,4,4-trifluorobutyl)carbamoyl)bicyclo[2.2.1]heptan-2-yl)carbamoyl)phenoxy)cyclohexane-1-carboxylic acid]",14,> 1000,5.8,110,> 5900,100
COc1cc(F)c(O[C@H]2CC[C@@H](C(=O)O)CC2)cc1C(=O)N[C@@H]1[C@H]2CC[C@H](C2)[C@@H]1C(=O)NCCC1CC1 [Example 176],9.3,210,8,120,> 4300,75
COc1cc(F)c(O[C@H]2CC[C@@H](C(=O)O)CC2)cc1C(=O)N[C@@H]1[C@H]2CC[C@H](C2)[C@@H]1C(=O)NC1CCC1 [Example 177],15,> 1000,3.5,130,> 2200,100
COc1cc(F)c(O[C@H]2CC[C@@H](C(=O)O)CC2)cc1C(=O)N[C@@H]1[C@H]2CC[C@H](C2)[C@@H]1C(=O)NC12CC(C1)C2 [Example 178],17,> 1000,8.6,39,> 2700,95
COc1cc(F)c(O[C@H]2CC[C@@H](C(=O)O)CC2)cc1C(=O)N[C@@H]1[C@H]2CC[C@H](C2)[C@@H]1C(=O)Nc1cccc(S(F)(F)(F)(F)F)c1 [Example 182],0.45,200,34,35,19,107
COc1cc(F)c(O[C@H]2CC[C@@H](C(=O)O)CC2)cc1C(=O)N[C@@H]1[C@H]2CC[C@H](C2)[C@@H]1C(=O)Nc1ccc(S(F)(F)(F)(F)F)cc1 [Example 183],0.50,50,23,13,420,99
"COc1cc(F)c(O[C@H]2CC[C@@H](C(=O)O)CC2)cc1C(=O)N[C@@H]1[C@H]2CC[C@H](C2)[C@@H]1C(=O)Nc1c(F)cccc1F [Example 184, (1S,4s)-4-(5-(((1S,2R,3S,4R)-3-((2,6-Difluorophenyl)carbamoyl)bicyclo[2.2.1]heptan-2-yl)carbamoyl)-2-fluoro-4-methoxyphenoxy)cyclohexane-1-carboxylic acid]",8.6,> 1000,7.4,70,> 40000,–
COc1cc(F)c(O[C@H]2CC[C@@H](C(=O)O)CC2)cc1C(=O)N[C@@H]1[C@H]2CC[C@H](C2)[C@@H]1C(=O)Nc1cccc(I)c1 [Example 185],0.37,270,48,83,200,108
COc1cc(F)c(O[C@H]2CC[C@@H](C(=O)O)CC2)cc1C(=O)N[C@@H]1[C@H]2CC[C@H](C2)[C@@H]1C(=O)Nc1ccc(Cl)c(C(F)(F)F)c1 [Example 186],0.24,80,27,20,18,110
COc1cc(F)c(O[C@H]2CC[C@@H](C(=O)O)CC2)cc1C(=O)N[C@@H]1[C@H]2CC[C@H](C2)[C@@H]1C(=O)Nc1cc(F)c(F)c(F)c1 [Example 187],0.41,580,15,21,250,105
COc1cc(F)c(O[C@H]2CC[C@@H](C(=O)O)CC2)cc1C(=O)N[C@@H]1[C@H]2CC[C@H](C2)[C@@H]1C(=O)Nc1cc(C)cc(C(F)(F)F)c1 [Example 188],0.64,290,36,38,270,103
COc1cc(F)c(O[C@H]2CC[C@@H](C(=O)O)CC2)cc1C(=O)N[C@@H]1[C@H]2CC[C@H](C2)[C@@H]1C(=O)Nc1cccc(C(C)(C)C)c1 [Example 189],1.5,83,34,23,130,101
